Test results reported in patent US10363253B2, “Combination products for the treatment of RSV” (priority 2016, dated 2019).
Where “and” joins values, the source holds several entries; their conditions need not be identical. Equal values may be shown once. Read-outs that look alike come from different tables or passages of the source.

Test system: rgRSV224, an engineered RSV strain that encodes for eGFP
Assay type: cell-based
Description: To evaluate their combined antiviral effect against RSV, in vitro combination studies were performed with JNJ-53718678 (“compound A”) and various compounds with different mechanisms-of-action (“compound B”). In short, 9 concentrations of Compound A were combined with 6 or 7 concentrations of a certain compound B. HeLa cells were infected with rgRSV224, an engineered RSV strain that encodes for eGFP (Hallak L K, Spillmann D, Collins P L, Peeples M E. Glycosaminoglycan sulfation requirements for respiratory syncytial virus infection; Journal of Virology (2000), 74(22), 10508-13), in the presence of various concentrations of compound A and compound B individually or in combination.
Compound stock solutions were 5 mM in 100% DMSO, with following exceptions: ribavirin, 20 mM; A 60444, 10 mM; CR9501, 141 μM in PBS; palivizumab, 156 μM in PBS; MDT 637, 100 μM in methanol. First, the compounds were serially diluted in 3-fold dilution series in DMSO; CR9501 and palivizumab were serially diluted in cell culture medium, and MDT 637 in methanol. The concentration series were diluted 100-fold in cell culture medium to achieve a combination matrix. 10 μL of these compound solutions were transferred to black 384-well clear-bottom tissue-culture treated plates. Next, 10 μL of a […] HeLa cell suspension was added to achieve 3000 cells per well. Finally, 10 μL of diluted virus stock was added to achieve an MOI of 1. The final DMSO concentration of all wells was 0.5% DMSO, except for the MDT 637 experiment where it was 0.25% DMSO+0.25% methanol. Each combination of compound concentrations was tested in 4 replicates on 3 separate plates, resulting in a total of 12 replicates. The plates were incubated for 3 days at 37° C. in a humidified atmosphere at 5% CO2. The GFP signal was measured with PerkinElmer EnVision apparatus using a 405 nm filter.
The method of Harbron (Statistics in Medicine, 2010, DOI:10.1002/sim3916) was used to assess synergy. Using the Loewe definition, two compounds are characterized as being additive, synergistic or antagonistic by:
where d1 and d2 represent the doses of the two compounds that in combination produce an effect y, and Dy,1 and Dy,2 represent the doses of the two compounds that produce the same effect, y, when administered as a monotherapy. A 3PL model (3-parameter log-logistic model) was used for the monotherapy dose-response data, where the baseline response was fixed at one.
Following Harbron's approach, the following models were fitted to the data: • “Additive”: assuming no interaction between the two compounds • “Uniform”: assuming a constant interaction index τ across all dose combinations • “Linear A”: assuming the interaction index linearly depends on the log 10 dose of compound A: z=τ1+τ2 log 10(dA) • “Separate A”: assuming the interaction index τ takes a separate value for each dose of compound A The latter two models were also considered for compound B: • “Linear B”: assuming the interaction index linearly τ depends on the log 10 dose of compound B: τ=τ1+τ2 log 10(dB) • “Separate B”: assuming the interaction index τ takes a separate value for each dose of compound B

## CS(=O)(=O)CCCn1c(Cn2c(=O)n(CC(F)(F)F)c3ccncc32)cc2cc(Cl)ccc21 [Compound A, 3-({5-chloro-1-[3-(methylsulfonyl)propyl]-1H-indol-2-yl}methyl)-1-(2,2,2-trifluoroethyl)-1,3-dihydro-2H-imidazo[4,5-c]pyridin-2-one]
A = 0.19 nM, B (A-60444) = 0
  normalized GFP signal: 0.96
A = 0.19 nM, B (AZ-27) = 0
  normalized GFP signal: 0.98
A = 0.19 nM, B (CAS 851658-10-1) = 0
  normalized GFP signal: 0.99
A = 0.19 nM, B (CR9501) = 0
  normalized GFP signal: 1.05
A = 0.19 nM, B (GS-5806) = 0
  normalized GFP signal: 0.99
A = 0.19 nM, B (MDT-637) = 0
  normalized GFP signal: 0.98
A = 0.19 nM, B (palivizumab) = 0
  normalized GFP signal: 1.04
A = 0.19 nM, B (pulmocide compound) = 0
  normalized GFP signal: 0.96
A = 0.19 nM, B (ribavirin) = 0
  normalized GFP signal: 0.97
A = 0.57 nM, B (A-60444) = 0
  normalized GFP signal: 0.95
A = 0.57 nM, B (AZ-27) = 0
  normalized GFP signal: 0.96
A = 0.57 nM, B (CAS 851658-10-1) = 0
  normalized GFP signal: 0.96
A = 0.57 nM, B (CR9501) = 0
  normalized GFP signal: 1.01
A = 0.57 nM, B (GS-5806) = 0
  normalized GFP signal: 0.93
A = 0.57 nM, B (MDT-637) = 0
  normalized GFP signal: 0.97
A = 0.57 nM, B (palivizumab) = 0
  normalized GFP signal: 0.98
A = 0.57 nM, B (pulmocide compound) = 0
  normalized GFP signal: 0.92
A = 0.57 nM, B (ribavirin) = 0
  normalized GFP signal: 0.95
A = 1.7 nM, B (A-60444) = 0
  normalized GFP signal: 0.83
A = 1.7 nM, B (AZ-27) = 0
  normalized GFP signal: 0.89
A = 1.7 nM, B (CAS 851658-10-1) = 0
  normalized GFP signal: 0.83
A = 1.7 nM, B (CR9501) = 0
  normalized GFP signal: 0.89
A = 1.7 nM, B (GS-5806) = 0
  normalized GFP signal: 0.83
A = 1.7 nM, B (MDT-637) = 0
  normalized GFP signal: 0.85
A = 1.7 nM, B (palivizumab) = 0
  normalized GFP signal: 0.86
A = 1.7 nM, B (pulmocide compound) = 0
  normalized GFP signal: 0.78
A = 1.7 nM, B (ribavirin) = 0
  normalized GFP signal: 0.87
A = 5.1 nM, B (A-60444) = 0
  normalized GFP signal: 0.55
A = 5.1 nM, B (AZ-27) = 0
  normalized GFP signal: 0.71
A = 5.1 nM, B (CAS 851658-10-1) = 0
  normalized GFP signal: 0.50
A = 5.1 nM, B (CR9501) = 0
  normalized GFP signal: 0.64
A = 5.1 nM, B (GS-5806) = 0
  normalized GFP signal: 0.47
A = 5.1 nM, B (MDT-637) = 0
  normalized GFP signal: 0.43
A = 5.1 nM, B (palivizumab) = 0
  normalized GFP signal: 0.57
A = 5.1 nM, B (pulmocide compound) = 0
  normalized GFP signal: 0.56
A = 5.1 nM, B (ribavirin) = 0
  normalized GFP signal: 0.63
A = 15 nM, B (A-60444) = 0
  normalized GFP signal: 0.38
A = 15 nM, B (AZ-27) = 0
  normalized GFP signal: 0.45
A = 15 nM, B (CAS 851658-10-1) = 0
  normalized GFP signal: 0.31
A = 15 nM, B (CR9501) = 0
  normalized GFP signal: 0.41
A = 15 nM, B (GS-5806) = 0
  normalized GFP signal: 0.30
A = 15 nM, B (MDT-637) = 0
  normalized GFP signal: 0.26
A = 15 nM, B (palivizumab) = 0
  normalized GFP signal: 0.38
A = 15 nM, B (pulmocide compound) = 0
  normalized GFP signal: 0.43
A = 15 nM, B (ribavirin) = 0
  normalized GFP signal: 0.39
A = 46 nM, B (A-60444) = 0
  normalized GFP signal: 0.28
A = 46 nM, B (AZ-27) = 0
  normalized GFP signal: 0.25
A = 46 nM, B (CAS 851658-10-1) = 0
  normalized GFP signal: 0.19
A = 46 nM, B (CR9501) = 0
  normalized GFP signal: 0.28
A = 46 nM, B (GS-5806) = 0
  normalized GFP signal: 0.21
A = 46 nM, B (MDT-637) = 0
  normalized GFP signal: 0.16
A = 46 nM, B (palivizumab) = 0
  normalized GFP signal: 0.28
A = 46 nM, B (pulmocide compound) = 0
  normalized GFP signal: 0.36
A = 46 nM, B (ribavirin) = 0
  normalized GFP signal: 0.25
A = 139 nM, B (A-60444) = 0
  normalized GFP signal: 0.14
A = 139 nM, B (AZ-27) = 0
  normalized GFP signal: 0.17
A = 139 nM, B (CAS 851658-10-1) = 0
  normalized GFP signal: 0.10
A = 139 nM, B (CR9501) = 0
  normalized GFP signal: 0.21
A = 139 nM, B (GS-5806) = 0
  normalized GFP signal: 0.11
A = 139 nM, B (MDT-637) = 0
  normalized GFP signal: 0.06
A = 139 nM, B (palivizumab) = 0
  normalized GFP signal: 0.17
A = 139 nM, B (pulmocide compound) = 0
  normalized GFP signal: 0.20
A = 139 nM, B (ribavirin) = 0
  normalized GFP signal: 0.15
A = 417 nM, B (A-60444) = 0
  normalized GFP signal: 0.07
A = 417 nM, B (AZ-27) = 0
  normalized GFP signal: 0.07
A = 417 nM, B (CAS 851658-10-1) = 0
  normalized GFP signal: 0.06
A = 417 nM, B (CR9501) = 0
  normalized GFP signal: 0.10
A = 417 nM, B (GS-5806) = 0
  normalized GFP signal: 0.06
A = 417 nM, B (MDT-637) = 0
  normalized GFP signal: 0.02
A = 417 nM, B (palivizumab) = 0
  normalized GFP signal: 0.09
A = 417 nM, B (pulmocide compound) = 0
  normalized GFP signal: 0.11
A = 417 nM, B (ribavirin) = 0
  normalized GFP signal: 0.08
A = 1250 nM, B (A-60444) = 0
  normalized GFP signal: 0.04
A = 1250 nM, B (AZ-27) = 0
  normalized GFP signal: 0.04
A = 1250 nM, B (CAS 851658-10-1) = 0
  normalized GFP signal: 0.04
A = 1250 nM, B (CR9501) = 0
  normalized GFP signal: 0.06
A = 1250 nM, B (GS-5806) = 0
  normalized GFP signal: 0.03
A = 1250 nM, B (MDT-637) = 0
  normalized GFP signal: −0.00
A = 1250 nM, B (palivizumab) = 0
  normalized GFP signal: 0.05
A = 1250 nM, B (pulmocide compound) = 0
  normalized GFP signal: 0.06
A = 1250 nM, B (ribavirin) = 0
  normalized GFP signal: 0.04

## O=C(Nc1ccccc1F)N[C@H]1N=C(c2ccccc2)c2ccccc2NC1=O [Compound A-60444, (S)-1-(2-fluorophenyl)-3-(2-oxo-5-phenyl-2,3-dihydro-1H-benzo[e][1,4]diazepin-3-yl) urea, reference compound]
A = 0, B (A-60444) = 34
  normalized GFP signal: 1.00
A = 0, B (A-60444) = 103
  normalized GFP signal: 1.00
A = 0, B (A-60444) = 309
  normalized GFP signal: 0.96
A = 0, B (A-60444) = 926
  normalized GFP signal: 0.93
A = 0, B (A-60444) = 2778
  normalized GFP signal: 0.93
A = 0, B (A-60444) = 8333
  normalized GFP signal: 0.75
A = 0, B (A-60444) = 25000
  normalized GFP signal: 0.39

## Cc1nnnn1/N=C/c1ccc(O)c(C(c2ccc(O)cc2)c2cc(/C=N/n3nnnc3C)ccc2O)c1 [MDT-637, reference compound]
  normalized GFP signal: 0.99 and 0.95
A = 0, B (MDT-637) = 0.038
  normalized GFP signal: 1.01
A = 0, B (MDT-637) = 1
  normalized GFP signal: 0.93
A = 0, B (MDT-637) = 3.1
  normalized GFP signal: 0.75
A = 0, B (MDT-637) = 9.3
  normalized GFP signal: 0.14
A = 0, B (MDT-637) = 28
  normalized GFP signal: 0.01
